For assay [1], the system named is p-MEK and p-ERK levels in HUVECs. In words: Western Blot, inhibition of MAPK pathway in cellular assay (Example 105). Format: cell-based, human. As to conditions: 50 ng/ml VEGF or FGF. Here is the method: Some compounds described by the general structure (B) were tested for inhibition of MAPK pathway in cellular assay. Western Blot: Early passage primary human umbilical vein endothelial cells (HUVECs) were maintained in EGM-2 containing SingleQuots (Cambrex, East Rutherford, N.J.), 10% FBS, 10 mM HEPES, and 50 μg/ml gentamicin. Prior to treatment of the cells with inhibitor, the HUVECs were starved for 18 h by replacing serum-containing complete media with serum-free and SingleQuot-free media. The starved cells were pre-treated with inhibitors for 60 min at various concentrations (0-20 μM). Next the HUVECs were treated with 50 ng/ml VEGF or FGF (Peprotech, Rocky Hill, N.J.) for 6 min and the cells were immediately washed with ice-cold PBS. Cells were lysed with ice-cold RIPA buffer containing 100 mM Tris pH 7.5, 150 mM NaCl, 1 mM EDTA, 1% deoxycholate, 1% Triton X-100, 0.1% SDS, 2 mM PMSF, one Complete-Mini protease inhibitor tablet (Roche, Indianapolis, Ind.; 1 tablet/7 ml of lysis buffer) and the phophatase inhibitors NaF (500 mM) and orthovanadate (1 mM). The cells were scraped and lysates transferred and centrifuged at 15,000 g for 10 main. Supernatants were transferred to new tubes and protein concentration was quantitated using the BCA protein reagent (Pierce, Rockford, Ill.). Cell lysates containing 20 μg of total protein were separated by 10% SDS-PAGE, transferred to nitrocellulose, and blocked in 5% milk in TBST. Anti phospho-ERK Thr 202/Tyr 204 (Cell Signaling, Beverly, Mass.), anti-phospho-MEK Ser217/221 (Cell Signaling), and c-Raf (BD Biosciences Pharmingen, San Diego, Calif.) used as primary antibodies were detected with horseradish peroxidase-conjugated goat anti-mouse or rabbit secondary antibodies and bands were visualized using the SuperSignal West Pico chemiluminescence reagent system (Pierce) and Kodak X-ray film (Rochester, N.Y.).

The subject of a further assay is HUVECs. In words: XTT cell viability assay (Example 106). Type of assay: cell-based, human. As to conditions: Homo sapiens, HUVEC, 72 hours, read-out: Inhibition of HUVEC cell prolifiration (IC50). As for the experimental part:
Some compounds described by the general structure (B) were tested for cell viability. XTT assay: HUVECs were seeded at 10,000 cells/well of a tissue culture treated 96-well plate treated with collagen type I and grown overnight in the complete EGM-2 media as described above. The following morning, the inhibitors were serial diluted with DMSO and added to the cells with a final DMSO concentration of 1%. After 72 hours cell viability was measured with an XTT assay (Sigma, St. Louis, Mo.). The cells were also photographed to compare morphological differences to the XTT trends observed. Determination of the IC50 values was performed with quantitative software (Prism software package, GraphPad Software, San Diego Calif.).

Molecules are shown by their SMILES. Where a name gives a salt, the structure may show the parent alone.

The values below come from US8372971B2, “Heterocyclic compounds and methods of use” (TargeGen, Inc., priority 2004, dated 2013).

With `Clc1cccc(Nc2nnc(-c3ccc(Oc4cncnc4)cc3)o2)c1` [5-[4-(Pyrimidin-5-yloxy)phenyl]-N-[3-chloro-phenyl]-1,3,4-oxadiazol-2-amine], the “Western Blot” value in assay [1] (at 5 uM) is recorded as “active at 5 uM”. In the assay on HUVECs, the IC50 is ~20 µM.

With `O=C(Nc1nnc(-c2ccc(Oc3cccnc3)cc2)o1)c1cc(C(F)(F)F)cc(Cl)c1F` [3-Chloro-2-fluoro-N-{5-[4-pyridin-3-yloxy)phenyl]-1,3,4-oxadiazol-2-yl}-5-trifluoromethyl)-benzamide], the “Western Blot” value in assay [1] (at 10 uM) was “not active at 10 uM”. Moreover, the IC50 with HUVECs was > 40 µM.

For `O=C(Nc1nnc(-c2ccc(Oc3cccnc3)cc2)o1)c1cccc(OC(F)(F)F)c1` [N-{5-[4-(pyridin-3-yloxy)phenyl]-1,3,4-oxadiazol-2-yl}-3-(trifluoromethoxy)-benzamide], in assay [1] (at 10 uM), the “Western Blot” value was “not active at 10 uM”. In addition, the IC50 with HUVECs is > 40 µM.

With `O=C(Nc1nnc(-c2ccc(Oc3cccnc3)cc2)o1)c1ccccc1OC(F)(F)F` [N-{5-[4-(pyridin-3-yloxy)phenyl]-1,3,4-oxadiazol-2-yl}-2-(trifluoromethoxy)-benzamide], in assay [1] (at 10 uM), the “Western Blot” value is recorded as “not active at 10 uM”. The IC50 in the assay with HUVECs was ~20 µM.

As to `FC(F)(F)c1cc(Nc2nnc(-c3ccc(Oc4cccnc4)cc3)o2)ccc1Cl` [N-[4-chloro-3-(trifluoromethyl)phenyl]-5-[4-(pyridin-3-yloxy)phenyl]-1,3,4-oxadiazol-2-amine trifluoroacetate salt], the “Western Blot” value in assay [1] (at 5 uM) is reported as “active at 5 uM”. Further, the IC50 with HUVECs came out at 1.72 µM.

With `Clc1ccc(Nc2nnc(-c3ccc(Oc4cccnc4)cc3)o2)cc1` [5-[4-(Pyridin-3-yloxy)phenyl]-N-[4-chloro-phenyl]-1,3,4-oxadiazol-2-amine], the “Western Blot” value in assay [1] (at 10 uM) was “active at 10 uM”. The IC50 with HUVECs was found to be 9.6 µM.

Take `Nc1cc(Oc2ccc(-c3nnc(Nc4cccc(C(F)(F)F)c4)o3)cc2)nc(N)n1` [6-[4-(5-{[3-(trifluoromethyl)phenyl]amino}-1,3,4-oxadiazol-2-yl)phenoxy}pyrimidine-2,4-diamine]: the “Western Blot” value in assay [1] (at 5 uM) is reported as “active at 5 uM”. Moreover, the IC50 in the assay on HUVECs is > 10 µM.

For `Clc1ccc(Nc2nnc(-c3ccc(Oc4cncnc4)cc3)o2)cc1` [5-[4-(Pyrimidin-5-yloxy)phenyl]-N-[4-chloro-phenyl]-1,3,4-oxadiazol-2-amine], the “Western Blot” value in assay [1] (at 5 uM) is recorded as “active at 5 uM”. Also, in the assay with HUVECs, the IC50 was > 20 µM.

On to `CNC(=O)c1cc(Oc2ccc(-c3nnc(Nc4ccc(Cl)c(C(F)(F)F)c4)o3)cc2)ccn1` [4-[4-(5-{[4-chloro-3-(trifluoromethyl)phenyl]amino}-1,3,4-oxadiazol-2-yl)phenoxy]-N-methylpyridine-2-carboxamide trifluoroacetate salt], for which, in assay [1] (at 5 uM), the “Western Blot” value is “active at 5 uM”. Besides, the IC50 in the assay on HUVECs was found to be 5.6 µM.

As for `FC(F)(F)c1cc(-c2nnc(Nc3ccc(Oc4cncnc4)cc3)[nH]2)ccc1Cl` [5-[4-chloro-3-(trifluoromethyl)phenyl]-N-[4-(pyrimidin-5-yloxy)phenyl]-4H-1,2,4-triazol-3-anine trifluoroacetate salt], the “Western Blot” value in assay [1] (at 5 uM) is “active at 5 uM”. The IC50 with HUVECs is > 10 µM.

As to `O=C(Nc1nnc(-c2ccc(Oc3cccnc3)cc2)o1)c1cccc(C(F)(F)F)c1` [N-{5-[4-(pyridin-3-yloxy)phenyl]-1,3,4-oxadiazol-2-yl}-3-(trifluoromethyl)benzamide], the “Western Blot” value in assay [1] (at 10 uM) was “active at 10 uM”. In the assay on HUVECs, the IC50 is > 40 µM.

On to `Nc1cc(Oc2ccc(Nc3nnc(-c4ccc(Cl)c(C(F)(F)F)c4)[nH]3)cc2)nc(N)n1` [6-[4-({5-[4-chloro-3-(trifluoromethyl)phenyl-4H-1,2,4-triazol-3-yl}amino)phenoxy]pyrimidine-2,4-diamine trifluoroacetate salt], for which the “Western Blot” value in assay [1] (at 5 uM) is listed as “active at 5 uM”. Also, in the assay with HUVECs, the IC50 amounted to 9.57 µM.

As for `FC(F)(F)c1cc(-c2nnc(Nc3ccc(Oc4cccnc4)cc3)[nH]2)ccc1Cl` [5-[4-chloro-3-(trifluoromethyl)phenyl]-N-[4-(pyridine-3-yloxy)phenyl]-4H-1,2,4-triazol-3-amine trifluoroacetate salt], the “Western Blot” value in assay [1] (at 5 uM) is reported as “active at 5 uM”. Moreover, the IC50 in the assay with HUVECs is > 40 µM.

`Nc1cc(Oc2ccc(-c3nnc(Nc4ccc(Cl)c(C(F)(F)F)c4)o3)cc2)nc(N)n1` [6-[4-(5-{[4-Chloro-3-trifluoromethyl-phenyl]amino}-1,3,4-oxadiazol-2-yl)-phenoxy]-pyrimidine-2,4-diamine]: the “Western Blot” value in assay [1] (at 5 uM) is on record as “active at 5 uM”. Moreover, the IC50 in the assay on HUVECs worked out at 1.57 µM.

With `O=C(Nc1nnc(-c2ccc(Oc3cccnc3)cc2)o1)c1ccc2c(c1)OC(F)(F)O2` [2,2-Difluoro-N-{5-[4-(pyridin-3-yloxy)phenyl]-1,3,4-oxadiazol-2-yl}-1,3-benzodioxole-5-carboxamide], in assay [1] (at 10 uM), the “Western Blot” value is “not active at 10 uM”. The IC50 in the assay on HUVECs was > 40 µM.

`Nc1cc(Oc2ccc(-c3nnc(Nc4ccc(Cl)c(C(F)(F)F)c4)[nH]3)cc2)nc(N)n1` [6-{4-[5-(4-chloro-3-trifluoromethyl-phenylamino)-4H-[1,2,4]-triazol-3-yl]-phenoxy}-pyrimidine-2,4-diamine]: the “Western Blot” value in assay [1] (at 5 uM) was “active at 5 uM”. In the assay on HUVECs, the IC50 amounted to 0.089 µM.

Regarding `CNC(=O)c1cc(Oc2ccc(-c3nnc(Nc4ccc(Cl)c(C(F)(F)F)c4)[nH]3)cc2)ccn1` [4-{4-[5-(4-chloro-3-trifluoromethyl-phenylamino)-4H-[1,2,4]triazol-3-yl]-phenoxy}-pyridine-2-carboxylic acid methylamide trifluoroacetic acid salt], in assay [1] (at 10 uM), the “Western Blot” value was “active at 10 uM”. Also, the IC50 with HUVECs came out at 2.85 µM.

Turning to `FC(F)(F)c1cccc(Nc2nnc(-c3ccc(Oc4cncnc4)cc3)o2)c1` [5-[4-(Pyrimidin-5-yloxy)phenyl]-N-[3-(trifluoromethyl)phenyl]-1,3,4-oxadiazol-2-amine], the “Western Blot” value in assay [1] (at 5 uM) is reported as “active at 5 uM”. In addition, the IC50 with HUVECs is > 10 µM.

Regarding `O=C(Nc1nnc(-c2ccc(Oc3cccnc3)cc2)o1)c1ccc(F)c(C(F)(F)F)c1` [4-Fluoro-N-{5-[4-(pyridin-3-yloxy)phenyl]-1,3,4-oxadiazol-2-yl}-3-(trifluoromethyl)-benzamide], the “Western Blot” value in assay [1] (at 10 uM) was “active at 10 uM”. The IC50 with HUVECs was ~20 µM.

In the case of `Nc1cc(Oc2ccc(-c3nnc(Nc4ccc(Cl)cc4)o3)cc2)nc(N)n1` [6-(4-{5-[(4-chlorophenyl)amino]-1,3,4-oxadiazol-2-yl}phenoxy) pyrimidine-2,4-diamine], the “Western Blot” value in assay [1] (at 5 uM) was “active at 5 uM”. Moreover, in the assay with HUVECs, the IC50 was determined as 2.6 µM.

Consider `Nc1cc(Oc2cccc(-c3nnc(Nc4ccc(Cl)c(C(F)(F)F)c4)[nH]3)c2)nc(N)n1` [6-{3-[5-(4-chloro-3-trifluoromethyl-phenylamino)-4H-[1,2,4]triazol-3-yl]-phenoxy}-pyrimidine-2,4-diamine trifluoroacetic acid salt], for which the “Western Blot” value in assay [1] (at 5 uM) is “active at 5 uM”. Further, the IC50 with HUVECs is 0.404 µM.

For the molecule `Br.Nc1nnc(-c2ccc(Oc3cccnc3)cc2)o1` [5-[4-(Pyridin-3-yloxy)phenyl]-1,3,4-oxadiazol-2-amine hydrobromide salt], the “Western Blot” value in assay [1] (at 10 uM) is recorded as “not active at 10 uM”. Moreover, the IC50 with HUVECs is > 40 µM.

Consider `Nc1cc(Oc2ccc(-c3nnc(Nc4cccc(Cl)c4)o3)cc2)nc(N)n1` [6-(4-{5-[(3-chlorophenyl)amino]-1,3,4-oxadiazol-2-yl}phenoxy) pyrimidine-2,4-diamine], for which the “Western Blot” value in assay [1] (at 5 uM) was “active at 5 uM”. Besides, in the assay on HUVECs, the IC50 is ~20 µM.

Consider `Nc1ccc(Oc2ccc(Nc3nnc(-c4ccc(Cl)c(C(F)(F)F)c4)[nH]3)cc2)nn1` [6-[4-({5-[4-chloro-3-(trifluoromethyl)phenyl]-4H-1,2,4-triazol-3-yl}amino)phenoxy]pyridazin-3-amine trifluoroacetate salt], for which the “Western Blot” value in assay [1] (at 5 uM) is recorded as “active at 5 uM”. Moreover, the IC50 with HUVECs was > 40 µM.

`FC(F)(F)c1cc(Nc2nnc(-c3ccc(Oc4cccnc4)cc3)[nH]2)ccc1Cl` [(4-chloro-3-trifluoromethyl-phenyl)-{5-[4-(pyridin-3-yloxy)-phenyl]-4H-[1,2,4]triazol-3-yl}-amine]: the “Western Blot” value in assay [1] (at 5 uM) is reported as “active at 5 uM”. The IC50 with HUVECs turned out to be 1.81 µM.
